Publication PMC4310350 (Drug Design, Development and Therapy, 2015)
“Also recorded” adds a separate entry of the source. Values belong to the molecule of their own block, whether it stands above or below them.

Legend:
[1] = target: T1, OATP1B3 (Homo sapiens, UniProt Q9NPD5); test: Uptake in HEK293 cells overexpressing OATP1B3; format: in vitro ADME; conditions: probe substrate, functionality check of OATP1B3
T1 sequence (Q9NPD5 1-702): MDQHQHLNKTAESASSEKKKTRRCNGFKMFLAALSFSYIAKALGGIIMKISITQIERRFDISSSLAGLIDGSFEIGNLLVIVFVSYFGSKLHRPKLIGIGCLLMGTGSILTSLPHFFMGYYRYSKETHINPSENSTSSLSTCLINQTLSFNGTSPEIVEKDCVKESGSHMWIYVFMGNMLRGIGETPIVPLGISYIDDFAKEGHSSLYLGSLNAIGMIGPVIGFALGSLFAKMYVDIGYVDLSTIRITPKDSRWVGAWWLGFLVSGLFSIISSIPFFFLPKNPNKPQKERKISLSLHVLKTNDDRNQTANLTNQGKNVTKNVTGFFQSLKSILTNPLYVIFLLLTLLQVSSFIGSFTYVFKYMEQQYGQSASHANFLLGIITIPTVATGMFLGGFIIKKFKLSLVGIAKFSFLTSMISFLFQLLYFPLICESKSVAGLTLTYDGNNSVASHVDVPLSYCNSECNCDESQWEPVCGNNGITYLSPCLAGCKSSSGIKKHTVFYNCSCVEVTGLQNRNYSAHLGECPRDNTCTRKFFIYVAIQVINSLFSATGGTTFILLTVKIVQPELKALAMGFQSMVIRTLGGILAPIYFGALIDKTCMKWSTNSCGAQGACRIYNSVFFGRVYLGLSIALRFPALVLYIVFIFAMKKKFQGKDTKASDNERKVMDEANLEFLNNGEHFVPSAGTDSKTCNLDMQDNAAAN

[2] = target: T2, OAT3 (Homo sapiens, UniProt Q8TCC7); test: Uptake in HEK293 cells overexpressing OAT3; format: in vitro ADME; conditions: probe substrate, functionality check of OAT3
T2 sequence (Q8TCC7 1-542): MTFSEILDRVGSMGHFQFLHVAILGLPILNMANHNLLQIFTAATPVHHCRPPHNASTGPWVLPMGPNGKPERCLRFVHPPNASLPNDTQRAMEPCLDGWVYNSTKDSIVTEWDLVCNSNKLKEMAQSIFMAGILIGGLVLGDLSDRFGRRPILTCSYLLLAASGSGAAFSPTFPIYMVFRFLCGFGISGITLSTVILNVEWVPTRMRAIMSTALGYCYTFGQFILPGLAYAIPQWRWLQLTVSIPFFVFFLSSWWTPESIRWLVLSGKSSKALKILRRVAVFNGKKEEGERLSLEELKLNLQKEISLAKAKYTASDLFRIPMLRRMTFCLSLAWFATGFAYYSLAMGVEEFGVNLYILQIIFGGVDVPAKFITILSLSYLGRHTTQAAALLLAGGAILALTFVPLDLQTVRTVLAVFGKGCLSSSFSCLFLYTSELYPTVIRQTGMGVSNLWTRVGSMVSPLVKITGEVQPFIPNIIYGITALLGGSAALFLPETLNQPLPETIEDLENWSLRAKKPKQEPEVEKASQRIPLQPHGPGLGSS

[3] = target: T3, OATP1B1 (Homo sapiens, UniProt Q9Y6L6); test: Uptake in HEK293 cells overexpressing OATP1B1; format: in vitro ADME; conditions: probe substrate, functionality check of OATP1B1
T3 sequence (Q9Y6L6 1-691): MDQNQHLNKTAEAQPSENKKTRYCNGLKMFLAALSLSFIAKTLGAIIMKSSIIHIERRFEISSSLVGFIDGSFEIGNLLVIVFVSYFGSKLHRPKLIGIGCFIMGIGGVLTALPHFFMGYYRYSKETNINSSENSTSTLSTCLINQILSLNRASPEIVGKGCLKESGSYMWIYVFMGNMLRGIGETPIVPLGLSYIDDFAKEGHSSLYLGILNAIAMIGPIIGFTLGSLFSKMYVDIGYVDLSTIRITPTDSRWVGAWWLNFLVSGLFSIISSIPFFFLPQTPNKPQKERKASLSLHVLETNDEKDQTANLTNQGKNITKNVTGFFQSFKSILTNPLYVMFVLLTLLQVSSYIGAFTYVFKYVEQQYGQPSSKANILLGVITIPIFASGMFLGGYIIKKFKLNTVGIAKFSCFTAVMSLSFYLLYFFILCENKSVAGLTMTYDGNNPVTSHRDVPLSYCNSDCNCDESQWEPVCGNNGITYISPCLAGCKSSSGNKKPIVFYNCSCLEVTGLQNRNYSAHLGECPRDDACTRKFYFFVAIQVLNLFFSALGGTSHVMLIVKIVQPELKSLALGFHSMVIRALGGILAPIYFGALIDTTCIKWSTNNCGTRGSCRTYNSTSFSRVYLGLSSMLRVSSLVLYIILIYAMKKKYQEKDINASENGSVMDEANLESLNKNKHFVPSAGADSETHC

[4] = target: T4, BCRP (Homo sapiens, UniProt Q9UNQ0); test: A-to-B and B-to-A transport in LLC-PK1 cells overexpressing BCRP; format: in vitro ADME; conditions: probe substrate, LLC-PK1-BCRP compared with LLC-PK1-mock cells
T4 sequence (Q9UNQ0 1-655): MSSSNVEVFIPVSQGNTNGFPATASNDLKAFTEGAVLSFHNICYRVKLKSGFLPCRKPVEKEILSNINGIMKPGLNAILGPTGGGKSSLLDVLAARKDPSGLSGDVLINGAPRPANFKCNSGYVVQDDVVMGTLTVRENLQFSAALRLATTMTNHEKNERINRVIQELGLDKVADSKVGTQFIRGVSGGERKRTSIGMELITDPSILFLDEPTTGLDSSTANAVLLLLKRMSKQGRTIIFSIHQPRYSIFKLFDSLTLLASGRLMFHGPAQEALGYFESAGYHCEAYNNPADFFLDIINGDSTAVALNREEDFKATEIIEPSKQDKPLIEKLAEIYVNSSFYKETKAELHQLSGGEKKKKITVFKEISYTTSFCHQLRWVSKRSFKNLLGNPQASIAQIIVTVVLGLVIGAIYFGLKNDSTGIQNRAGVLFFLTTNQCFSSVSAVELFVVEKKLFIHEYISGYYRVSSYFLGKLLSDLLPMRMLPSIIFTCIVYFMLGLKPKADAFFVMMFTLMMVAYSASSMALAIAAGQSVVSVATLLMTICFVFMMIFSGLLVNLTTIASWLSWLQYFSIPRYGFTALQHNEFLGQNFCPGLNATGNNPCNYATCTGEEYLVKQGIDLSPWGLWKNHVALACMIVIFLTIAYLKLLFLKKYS

[5] = target: T5, OCT1 (Homo sapiens, UniProt O15245); test: Uptake in HEK293 cells overexpressing OCT1; format: in vitro ADME; conditions: probe substrate, functionality check of OCT1
T5 sequence (O15245 1-554): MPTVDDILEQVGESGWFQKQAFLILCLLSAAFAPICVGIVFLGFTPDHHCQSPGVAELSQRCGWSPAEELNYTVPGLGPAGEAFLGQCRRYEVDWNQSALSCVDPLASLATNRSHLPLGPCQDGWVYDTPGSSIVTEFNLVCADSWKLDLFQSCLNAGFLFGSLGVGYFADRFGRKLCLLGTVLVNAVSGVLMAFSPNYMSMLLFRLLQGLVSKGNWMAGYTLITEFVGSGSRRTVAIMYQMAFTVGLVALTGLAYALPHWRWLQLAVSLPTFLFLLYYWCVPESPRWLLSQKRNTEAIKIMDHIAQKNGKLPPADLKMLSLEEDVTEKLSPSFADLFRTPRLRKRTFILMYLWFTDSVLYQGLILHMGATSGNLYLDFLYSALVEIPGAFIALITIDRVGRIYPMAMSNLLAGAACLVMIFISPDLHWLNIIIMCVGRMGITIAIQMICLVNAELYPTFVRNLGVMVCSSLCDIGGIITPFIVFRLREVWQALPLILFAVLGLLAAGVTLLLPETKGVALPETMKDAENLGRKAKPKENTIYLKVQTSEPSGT

[6] = target: T6, OCT2 (Homo sapiens, UniProt O15244); test: Uptake in HEK293 cells overexpressing OCT2; format: in vitro ADME; conditions: probe substrate, functionality check of OCT2
T6 sequence (O15244 1-555): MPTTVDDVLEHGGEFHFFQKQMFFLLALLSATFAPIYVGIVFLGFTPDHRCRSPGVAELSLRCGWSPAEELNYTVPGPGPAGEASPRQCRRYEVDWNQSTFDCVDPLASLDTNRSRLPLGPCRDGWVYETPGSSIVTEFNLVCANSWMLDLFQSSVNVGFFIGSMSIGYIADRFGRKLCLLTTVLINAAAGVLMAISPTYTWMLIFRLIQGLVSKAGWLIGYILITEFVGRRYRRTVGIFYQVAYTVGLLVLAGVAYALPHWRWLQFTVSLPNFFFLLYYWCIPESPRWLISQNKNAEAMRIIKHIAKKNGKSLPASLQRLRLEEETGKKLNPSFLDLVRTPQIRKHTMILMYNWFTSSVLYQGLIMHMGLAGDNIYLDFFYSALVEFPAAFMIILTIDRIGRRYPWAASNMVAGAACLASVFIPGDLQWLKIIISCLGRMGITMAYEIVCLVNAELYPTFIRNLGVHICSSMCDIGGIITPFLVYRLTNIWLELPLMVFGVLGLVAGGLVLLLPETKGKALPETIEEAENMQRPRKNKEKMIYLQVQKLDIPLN

[7] = target: P-gp (Homo sapiens, UniProt P08183); test: A-to-B and B-to-A transport in LLC-PK1 cells overexpressing P-gp; format: in vitro ADME; conditions: pig, LLC-PK1, Net efflux ratio, probe substrate, LLC-PK1-MDR1 compared with LLC-PK1-mock cells
[8] = target: T1, OATP1B3; format: in vitro ADME; conditions: 10 μM catalposide, HEK293-OATP1B3
[9] = target: T3, OATP1B1; conditions: 10 μM catalposide, HEK293-OATP1B1
[10] = target: T1, OATP1B3; conditions: read-out: IC50 as inhibitor of OATP1B3; cited from earlier work
[11] = substrate: O=C(O[C@H]1[C@@H]2C=CO[C@@H](O[C@@H]3O[C@H](CO)[C@@H](O)[C@H](O)[C@H]3O)[C@@H]2[C@@]2(CO)O[C@@H]12)c1ccc(O)cc1; test: Uptake in HEK293 cells overexpressing OATP1B1; format: in vitro ADME; conditions: other: OATP1B1-mediated uptake, 2–500 μM catalposide, 5 minutes; 37.0 °C

Chain of P-gp (P08183 whole entry): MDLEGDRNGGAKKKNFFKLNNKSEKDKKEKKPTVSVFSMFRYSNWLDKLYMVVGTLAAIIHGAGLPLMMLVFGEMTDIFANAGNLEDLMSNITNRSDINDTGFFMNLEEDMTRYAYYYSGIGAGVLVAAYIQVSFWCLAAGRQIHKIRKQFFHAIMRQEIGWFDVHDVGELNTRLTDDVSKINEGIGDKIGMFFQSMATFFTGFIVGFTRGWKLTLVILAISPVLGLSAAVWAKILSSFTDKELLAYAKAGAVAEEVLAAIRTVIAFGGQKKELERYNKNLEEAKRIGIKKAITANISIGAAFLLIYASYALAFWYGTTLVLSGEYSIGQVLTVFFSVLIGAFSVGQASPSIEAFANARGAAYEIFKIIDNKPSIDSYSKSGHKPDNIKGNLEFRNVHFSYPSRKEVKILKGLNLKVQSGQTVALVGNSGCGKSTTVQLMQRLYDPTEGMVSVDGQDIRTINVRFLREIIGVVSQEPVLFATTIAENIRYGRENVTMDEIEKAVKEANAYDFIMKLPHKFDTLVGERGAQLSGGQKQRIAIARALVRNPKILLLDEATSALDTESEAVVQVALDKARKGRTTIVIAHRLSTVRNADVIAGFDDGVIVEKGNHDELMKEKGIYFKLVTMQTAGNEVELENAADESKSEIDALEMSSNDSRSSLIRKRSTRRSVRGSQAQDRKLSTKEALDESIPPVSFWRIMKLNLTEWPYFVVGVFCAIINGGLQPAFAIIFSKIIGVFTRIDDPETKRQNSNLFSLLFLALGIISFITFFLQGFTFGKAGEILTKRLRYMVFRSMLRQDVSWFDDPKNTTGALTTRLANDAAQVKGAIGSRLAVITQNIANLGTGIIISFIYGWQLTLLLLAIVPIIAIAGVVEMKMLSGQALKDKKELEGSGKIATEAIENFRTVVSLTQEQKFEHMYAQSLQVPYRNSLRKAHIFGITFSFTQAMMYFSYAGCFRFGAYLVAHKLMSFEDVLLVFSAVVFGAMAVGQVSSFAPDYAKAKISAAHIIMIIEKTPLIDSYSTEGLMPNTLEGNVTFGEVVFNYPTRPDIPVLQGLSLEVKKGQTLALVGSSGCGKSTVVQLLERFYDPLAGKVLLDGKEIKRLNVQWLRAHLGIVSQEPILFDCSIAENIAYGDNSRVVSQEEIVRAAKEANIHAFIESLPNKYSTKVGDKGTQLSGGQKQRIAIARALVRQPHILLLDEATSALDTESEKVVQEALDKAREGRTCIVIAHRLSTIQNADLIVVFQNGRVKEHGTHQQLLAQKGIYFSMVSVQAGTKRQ

Fold increase in uptake vs HEK293 mock cells [1]: 15.0 fold
Molecule: C[C@]12CC[C@@H]3c4ccc(O)cc4CC[C@H]3[C@@H]1CC[C@@H]2O[C@@H]1O[C@H](C(=O)O)[C@@H](O)[C@H](O)[C@H]1O [EG, estradiol-17β-D-glucuronide]

Fold increase in uptake vs HEK293 mock cells [2]: 18.9 fold
Fold increase in uptake vs HEK293 mock cells [3]: 17.3 fold
Net efflux ratio [4]: 4.6
Molecule: C[C@]12CC[C@@H]3c4ccc(OS(=O)(=O)O)cc4CC[C@H]3[C@@H]1CCC2=O [ES, estrone-3-sulfate]

Molecule: C[n+]1ccc(-c2ccccc2)cc1 [MPP^+, methyl-4-phenylpyridinium]
Fold increase in uptake vs HEK293 mock cells [5]: 13.2 fold
Fold increase in uptake vs HEK293 mock cells [6]: 17.8 fold

efflux ratio at 1 h [7]: 5.7
Molecule: C[C@H]1O[C@@H](O[C@H]2[C@@H](O)C[C@H](O[C@H]3[C@@H](O)C[C@H](O[C@H]4CC[C@@]5(C)[C@H](CC[C@@H]6[C@@H]5C[C@@H](O)[C@]5(C)[C@@H](C7=CC(=O)OC7)CC[C@]65O)C4)O[C@@H]3C)O[C@@H]2C)C[C@H](O)[C@@H]1O [digoxin]

Molecule: Cc1ccc(C)c(OCCCC(C)(C)C(=O)O)c1 [gemfibrozil]
Effect on OATP1B3-mediated catalposide uptake [8]: decreased to basal levels; also recorded: inhibitory effects
Effect on OATP1B1-mediated catalposide uptake [9]: decreased to basal levels; also recorded: inhibitory effects
IC50 [10]: ~200 µM

Molecule: CO[C@H]1/C=C/O[C@@]2(C)Oc3c(C)c(O)c4c(O)c(c(/C=N/N5CCN(C)CC5)c(O)c4c3C2=O)NC(=O)/C(C)=C\C=C\[C@H](C)[C@H](O)[C@@H](C)[C@@H](O)[C@@H](C)[C@H](OC(C)=O)[C@@H]1C [rifampin]
Effect on OATP1B3-mediated catalposide uptake [8]: decreased to basal levels; also recorded: inhibitory effects
Effect on OATP1B1-mediated catalposide uptake [9]: decreased to basal levels; also recorded: inhibitory effects

B1: OATP1B1 (Homo sapiens) (protein)
chain: T3 sequence (Q9Y6L6 1-691)
Km [11]: 220.5 µM
Vmax [11]: 7.7 pmol/min
